Measured values from patent US6054429A (priority 1996, dated 2000).
Bridge positions count the residues as written; N and C are the ends. Square brackets hold non-standard residues; d marks the D form. Peptide text beside a SMILES is read from it. Hyp = O=C(O)[C@@H]1C[C@@H](O)CN1

Target: calcium channels in N1E115 mouse neuroblastoma cells (Mus musculus, UniProt O55017)
Assay type: cell-based

Chain of calcium channels in N1E115 mouse neuroblastoma cells (O55017 whole entry): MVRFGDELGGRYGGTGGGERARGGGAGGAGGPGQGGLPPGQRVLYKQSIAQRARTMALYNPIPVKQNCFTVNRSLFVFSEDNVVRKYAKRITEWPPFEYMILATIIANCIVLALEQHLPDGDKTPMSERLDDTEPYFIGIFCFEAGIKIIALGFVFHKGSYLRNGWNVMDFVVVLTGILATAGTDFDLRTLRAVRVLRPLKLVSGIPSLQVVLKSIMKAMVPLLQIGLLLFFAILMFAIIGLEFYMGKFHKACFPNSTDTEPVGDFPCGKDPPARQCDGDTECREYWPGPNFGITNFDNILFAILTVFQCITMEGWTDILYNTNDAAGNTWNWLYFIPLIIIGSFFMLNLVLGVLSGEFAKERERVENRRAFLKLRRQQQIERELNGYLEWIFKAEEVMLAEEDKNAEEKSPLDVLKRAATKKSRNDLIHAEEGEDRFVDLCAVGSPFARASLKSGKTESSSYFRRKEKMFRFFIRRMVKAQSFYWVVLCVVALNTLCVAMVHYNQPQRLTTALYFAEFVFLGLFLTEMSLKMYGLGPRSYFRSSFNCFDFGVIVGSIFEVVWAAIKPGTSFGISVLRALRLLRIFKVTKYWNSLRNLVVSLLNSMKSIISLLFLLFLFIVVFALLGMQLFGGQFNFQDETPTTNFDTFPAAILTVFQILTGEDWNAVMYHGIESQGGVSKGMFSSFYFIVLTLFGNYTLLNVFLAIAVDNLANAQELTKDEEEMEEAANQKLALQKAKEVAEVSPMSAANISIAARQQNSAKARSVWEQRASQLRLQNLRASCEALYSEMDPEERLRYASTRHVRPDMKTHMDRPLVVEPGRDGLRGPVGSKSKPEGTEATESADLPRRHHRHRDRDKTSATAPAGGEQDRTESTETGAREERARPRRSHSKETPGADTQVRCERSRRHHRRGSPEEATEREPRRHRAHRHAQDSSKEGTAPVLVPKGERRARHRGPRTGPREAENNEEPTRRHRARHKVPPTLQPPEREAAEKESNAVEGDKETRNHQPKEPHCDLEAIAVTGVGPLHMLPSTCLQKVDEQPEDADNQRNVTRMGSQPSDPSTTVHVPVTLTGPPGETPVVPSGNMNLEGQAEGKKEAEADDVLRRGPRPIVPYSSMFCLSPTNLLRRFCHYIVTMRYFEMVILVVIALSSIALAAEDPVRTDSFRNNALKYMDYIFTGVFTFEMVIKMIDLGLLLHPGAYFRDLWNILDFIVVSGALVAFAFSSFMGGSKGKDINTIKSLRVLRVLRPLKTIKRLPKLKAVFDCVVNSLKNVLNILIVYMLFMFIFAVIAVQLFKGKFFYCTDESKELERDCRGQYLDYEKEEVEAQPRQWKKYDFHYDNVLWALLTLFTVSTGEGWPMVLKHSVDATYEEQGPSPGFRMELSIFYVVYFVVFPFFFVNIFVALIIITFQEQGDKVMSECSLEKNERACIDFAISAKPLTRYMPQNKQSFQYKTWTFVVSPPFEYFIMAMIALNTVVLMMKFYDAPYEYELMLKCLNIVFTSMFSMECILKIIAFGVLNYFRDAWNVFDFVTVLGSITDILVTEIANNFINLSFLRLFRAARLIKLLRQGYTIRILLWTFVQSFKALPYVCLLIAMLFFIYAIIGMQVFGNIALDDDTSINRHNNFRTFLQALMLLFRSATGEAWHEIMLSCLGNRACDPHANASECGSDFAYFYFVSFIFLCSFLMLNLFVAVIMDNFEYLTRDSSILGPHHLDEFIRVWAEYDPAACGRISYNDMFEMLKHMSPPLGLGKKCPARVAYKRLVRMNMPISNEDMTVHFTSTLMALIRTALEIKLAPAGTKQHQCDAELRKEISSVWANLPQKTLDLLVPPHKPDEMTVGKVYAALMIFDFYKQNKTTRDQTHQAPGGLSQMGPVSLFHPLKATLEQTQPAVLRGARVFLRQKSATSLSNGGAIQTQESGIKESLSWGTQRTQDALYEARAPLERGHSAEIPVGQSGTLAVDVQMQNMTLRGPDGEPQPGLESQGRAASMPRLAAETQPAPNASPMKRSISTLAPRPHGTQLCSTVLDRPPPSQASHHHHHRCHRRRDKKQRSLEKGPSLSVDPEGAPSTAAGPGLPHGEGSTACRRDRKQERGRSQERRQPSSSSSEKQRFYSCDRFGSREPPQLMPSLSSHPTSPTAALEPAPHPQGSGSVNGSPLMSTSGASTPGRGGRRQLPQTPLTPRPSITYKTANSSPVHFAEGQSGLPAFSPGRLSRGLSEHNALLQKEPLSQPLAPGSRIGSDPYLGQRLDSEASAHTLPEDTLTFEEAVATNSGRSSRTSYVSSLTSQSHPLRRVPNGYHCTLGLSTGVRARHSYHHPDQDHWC
Chain of calcium channels in N1E115 mouse neuroblastoma cells (P54285 whole entry partner): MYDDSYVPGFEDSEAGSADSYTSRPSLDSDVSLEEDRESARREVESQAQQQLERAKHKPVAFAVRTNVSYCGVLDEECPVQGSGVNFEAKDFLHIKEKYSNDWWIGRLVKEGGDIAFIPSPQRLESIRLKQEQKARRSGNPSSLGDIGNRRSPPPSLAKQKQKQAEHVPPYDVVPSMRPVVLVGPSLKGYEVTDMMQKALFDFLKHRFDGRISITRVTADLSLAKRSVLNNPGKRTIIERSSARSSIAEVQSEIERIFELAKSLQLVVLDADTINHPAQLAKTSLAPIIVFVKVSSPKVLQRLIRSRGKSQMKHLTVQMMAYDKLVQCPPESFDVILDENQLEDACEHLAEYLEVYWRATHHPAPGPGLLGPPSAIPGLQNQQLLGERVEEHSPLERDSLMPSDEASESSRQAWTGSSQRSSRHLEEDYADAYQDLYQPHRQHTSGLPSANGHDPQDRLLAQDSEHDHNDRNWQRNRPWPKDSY
Chain of calcium channels in N1E115 mouse neuroblastoma cells (O08532 25-956 partner limits assumed): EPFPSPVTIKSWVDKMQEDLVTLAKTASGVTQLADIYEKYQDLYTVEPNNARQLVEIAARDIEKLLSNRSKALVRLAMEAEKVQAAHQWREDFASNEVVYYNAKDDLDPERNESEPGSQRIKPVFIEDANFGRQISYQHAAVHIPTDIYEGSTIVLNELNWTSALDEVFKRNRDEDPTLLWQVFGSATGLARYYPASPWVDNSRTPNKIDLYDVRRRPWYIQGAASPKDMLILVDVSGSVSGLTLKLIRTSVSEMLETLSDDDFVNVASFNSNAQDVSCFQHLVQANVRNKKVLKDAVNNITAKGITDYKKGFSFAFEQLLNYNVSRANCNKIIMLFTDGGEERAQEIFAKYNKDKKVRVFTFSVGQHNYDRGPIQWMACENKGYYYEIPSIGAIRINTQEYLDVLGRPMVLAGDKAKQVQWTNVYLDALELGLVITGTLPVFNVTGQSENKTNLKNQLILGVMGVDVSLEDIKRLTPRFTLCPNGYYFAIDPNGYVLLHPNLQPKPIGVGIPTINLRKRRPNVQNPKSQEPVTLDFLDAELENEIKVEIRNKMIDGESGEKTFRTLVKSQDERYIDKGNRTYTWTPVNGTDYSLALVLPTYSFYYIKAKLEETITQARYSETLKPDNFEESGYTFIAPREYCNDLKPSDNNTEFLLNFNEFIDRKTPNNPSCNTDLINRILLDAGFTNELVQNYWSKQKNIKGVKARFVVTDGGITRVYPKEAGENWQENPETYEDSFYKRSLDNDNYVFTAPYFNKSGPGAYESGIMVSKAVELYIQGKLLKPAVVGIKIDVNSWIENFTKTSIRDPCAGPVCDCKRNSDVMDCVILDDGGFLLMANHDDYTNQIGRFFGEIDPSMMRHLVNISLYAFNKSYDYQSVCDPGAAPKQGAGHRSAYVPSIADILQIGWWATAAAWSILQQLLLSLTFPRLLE
Chain of calcium channels in N1E115 mouse neuroblastoma cells (O08532 957-1103 partner limits assumed): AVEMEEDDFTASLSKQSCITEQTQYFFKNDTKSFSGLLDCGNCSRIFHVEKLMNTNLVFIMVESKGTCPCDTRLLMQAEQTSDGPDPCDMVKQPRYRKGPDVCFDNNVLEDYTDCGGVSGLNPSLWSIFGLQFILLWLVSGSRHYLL

## CC[C@H](C)[C@@H]1NC(=O)[C@H](CO)NC(=O)[C@H]([C@@H](C)O)NC(=O)[C@H](C(C)C)NC(=O)CNC(=O)[C@@H]2CSSC[C@@H]3NC(=O)[C@H](CCCNC(=N)N)NC(=O)CNC(=O)[C@H](CSSC[C@H](N)C(=O)N[C@@H](CCCNC(=N)N)C(=O)N[C@@H](CO)C(=O)N[C@@H](CO)C(=O)NCC(=O)N[C@@H](CO)C(=O)N4C[C@H](O)C[C@H]4C(=O)N2)NC(=O)[C@H](CSSC[C@@H](C(=O)N[C@H](C(N)=O)[C@@H](C)O)NC(=O)[C@H](CCCCN)NC(=O)CNC(=O)[C@H](CCCNC(=N)N)NC(=O)[C@H](Cc2ccc(O)cc2)NC3=O)NC1=O [SNX-157] (H-CRSSGS[Hyp]CGVTSICCGRCYRGKCT-NH2; disulfide 1-15, 8-18, 14-23)
  IC50 for calcium current (in words): not measurable within the range of concentrations tested
